Reference: ChEMBL document CHEMBL4411316, “Design, synthesis and identification of novel coumaperine derivatives for inhibition of human 5-LOX: Antioxidant, pseudoperoxidase and docking studies” (Bioorg Med Chem, 2019)
The source made the active and inactive calls. The calls are words filed in the database; no cut-off is given here.

What was measured:
[1] = target: T1, Polyunsaturated fatty acid 5-lipoxygenase (Homo sapiens) (UniProt P09917); assay: Inhibition of recombinant human 5-LOX expressed in Escherichia coli at 20 uM using arachidonic acid as substrate by UV-vis spectrophotometric method relative to control
T1 sequence (whole entry): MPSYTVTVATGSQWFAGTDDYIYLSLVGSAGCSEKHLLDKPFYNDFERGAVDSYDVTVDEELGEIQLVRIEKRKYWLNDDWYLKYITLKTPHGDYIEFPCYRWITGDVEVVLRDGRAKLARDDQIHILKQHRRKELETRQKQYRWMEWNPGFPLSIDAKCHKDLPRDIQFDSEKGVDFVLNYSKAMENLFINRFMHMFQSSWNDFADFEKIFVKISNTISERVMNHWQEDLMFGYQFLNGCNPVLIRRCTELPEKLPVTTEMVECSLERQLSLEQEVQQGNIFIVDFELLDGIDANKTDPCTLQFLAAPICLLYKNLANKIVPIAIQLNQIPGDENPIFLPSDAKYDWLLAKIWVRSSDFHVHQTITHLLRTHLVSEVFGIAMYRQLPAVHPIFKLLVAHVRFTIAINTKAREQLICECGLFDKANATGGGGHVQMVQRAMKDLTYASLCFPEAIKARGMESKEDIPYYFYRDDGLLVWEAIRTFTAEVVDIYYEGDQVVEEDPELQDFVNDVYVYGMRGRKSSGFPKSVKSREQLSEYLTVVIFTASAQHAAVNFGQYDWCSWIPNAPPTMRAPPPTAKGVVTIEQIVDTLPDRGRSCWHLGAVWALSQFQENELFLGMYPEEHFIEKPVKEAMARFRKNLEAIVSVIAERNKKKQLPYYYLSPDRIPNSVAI

[2] = Antioxidant activity assessed as DPPH radical scavenging activity at 20 uM incubated for 30 mins under dark condition relative to control; assay type: functional
[3] = target: T2, Polyunsaturated fatty acid 5-lipoxygenase (Homo sapiens, UniProt P09917); assay: Inhibition of recombinant human 5-LOX expressed in Escherichia coli using arachidonic acid as substrate by UV-vis spectrophotometric method
T2 sequence (P09917 whole entry): T1 sequence (whole entry)

[4] = target: T1, Polyunsaturated fatty acid 5-lipoxygenase (Homo sapiens); assay: Inhibition of recombinant human 5-LOX pseudoperoxidase activity expressed in Escherichia coli BL21 assessed as compound redox activity by measuring reduction in absorption at 10 uM using 13(S)-HpODE as substrate by UV-vis spectrophotometric method relative to control; parameters: scale not given: the % may be the effect or the level left
[5] = target: T2, Polyunsaturated fatty acid 5-lipoxygenase; assay: Inhibition of human 5-LOX using arachidonic acid as substrate measured after 10 mins by ELISA

| Compound | inhibition [1] | further results |
| --- | --- | --- |
| COc1ccc(/C=C/C=C/C(=O)N2CCCCC2)cc1 | 42.6% | – |
| CN(C)c1ccc(/C=C/C=C/C=C/C(=O)N2CCCCC2)cc1 | 27.4% | – |
| CC(=O)Oc1ccc(/C=C/C=C/C(=O)N2CCCCC2)cc1 | 18.3% | – |
| O=C(/C=C/C=C/C=C/c1ccc(O)c(O)c1)N1CCCCC1 | 30.3% | – |
| O=C(/C=C/C=C/c1ccc(OC2CCCC2)cc1)N1CCCCC1 | 16.1% | – |
| O=C(/C=C/C=C/c1ccc(O)c(O)c1)N1CCCCC1 | 82.8% | Activity [2]: 76.8%; IC50 [3]: 2.1 µM; Activity [4]: 57.4% |
| COc1cc(OC)c(/C=C/C=C/C(=O)N2CCCCC2)c(OC)c1 | 77.1% | Activity [2]: 3.6%; Activity [4]: inactive |
| O=C(/C=C/C=C/c1cc(O)c(O)c(O)c1)N1CCCCC1 | 82.5% | Activity [2]: 71.3%; IC50 [3]: 2.3 µM; Activity [4]: 50.8% |
| COc1cc(/C=C/C=C/C(=O)N2CCCCC2)ccc1O | 55.5% | – |
| CN(C)c1ccc(/C=C/C=C/C(=O)N2CCCCC2)cc1 | 13.4% | – |
| O=C(/C=C/c1ccc(O)c(O)c1)N1CCCCC1 | 55.2% | – |
| COc1ccc(/C=C/C=C/C=C/C(=O)N2CCCCC2)cc1 | 1.08% | – |
| O=C(/C=C/C=C/c1ccc(Cl)cc1)N1CCCCC1 | 14.5% | – |
| COc1cc(/C=C/C=C/C(=O)N2CCCCC2)cc(OC)c1OC | 66.7% | – |
| COc1cc(/C=C/C=C/C(=O)N2CCCCC2)cc(OC)c1O | 32.7% | – |
| COc1ccc(/C=C/C=C/C(=O)N2CCCCC2)cc1OC | 51.9% | – |
| COc1ccc(/C=C/C=C/C(=O)N2CCCCC2)c(OC)c1OC | 36% | – |
| O=C1O[C@H]([C@@H](O)CO)C(O)=C1O | – | Activity [2]: 80.1% |
| O=C(/C=C/C=C/c1ccc2c(c1)OCO2)N1CCCCC1 | 47.5% | – |
| COC1=C(OC)C(=O)C(CCCCCCCCCCO)=C(C)C1=O [IDEBENONE] | – | IC50 [5]: > 10 µM |
| COc1cc(/C=C/C=C/C(=O)N2CCCCC2)cc(OC)c1 | 64.9% | – |
| O=C(/C=C/c1ccc2c(c1)OCO2)N1CCCCC1 | 39.9% | – |
| O=C(/C=C/C=C/c1ccccc1)N1CCCCC1 | 36.3% | – |
| O=C(/C=C/C=C/c1ccc(O)cc1)N1CCCCC1 | 44.4% | – |
| COc1cc(/C=C/c2ccc(O)cc2)cc(OC)c1 [PTEROSTILBENE] | – | IC50 [5]: 9.32 µM |
| CSc1ccc(/C=C/C=C/C(=O)N2CCCCC2)cc1 | 11.8% | – |
| O=C(/C=C/C=C/c1ccc(F)cc1)N1CCCCC1 | 48.7% | – |
| O=C(/C=C/C=C/C=C/c1ccc2c(c1)OCO2)N1CCCCC1 | 76% | Activity [2]: 0.9%; Activity [4]: inactive |
| Oc1cc(O)cc(/C=C/c2ccc(O)cc2O)c1 [OXYRESVERATROL] | – | IC50 [5]: 18.5 µM |
